The test system of one data set is NCI-H226 NSCLC xenograft. Kind of data set: NCI-H226 NSCLC xenograft model, tumor burden. To be noted: for T/C ratio: PEG-K1-3 4.5 mg/kg i.v., Taxol 20 mg/kg i.v. The class given is in vivo, Balb/c nu/nu mice.
Data set [1] can be described thus: body weight of animals in the NCI-H226 xenograft model. To be noted: 20 mg/kg; Day 11 and Day 25; ANOVA p<0.05.
Description: (§1) Female Balb/c nu/nu mice aged 6-8 weeks of about 18-20 g weight (institute of laboratory animal sciences, CAMS) were used in this experiment. Mice were subcutaneously inoculated on the right side with NCI-H226 cells (human pancreatic cancer cell line, derived from ATCC, ATCC number CRL-5826). When the tumor volume reached about 80-125 mm^3, the animals were divide into 3 groups randomly (6 per group). […] The body weight and tumor volume of the animals were measured twice a week. Sacrifice the animals on day 28, collect the tumors and take photographs.

The structures appear in SMILES notation.

Description for NCI-H226 NSCLC xenograft: as §1

With `CC(=O)O[C@H]1C(=O)[C@@]2(C)[C@H]([C@H](OC(=O)c3ccccc3)[C@]3(O)C[C@H](OC(=O)[C@H](O)[C@@H](NC(=O)c4ccccc4)c4ccccc4)C(C)=C1C3(C)C)[C@]1(OC(C)=O)CO[C@@H]1C[C@@H]2O` [Taxol, reference compound], in the data set with NCI-H226 NSCLC xenograft (20 mg/kg i.v., Day 11, Day 15, Day 18), the “tumor burden compared with the control group” value is reported as “significantly difference”. In addition, the T/C ratio in the data set on NCI-H226 NSCLC xenograft (Day 4) is reported as 69%; with NCI-H226 NSCLC xenograft (Day 11), 39%; in the data set on NCI-H226 NSCLC xenograft (Day 18) it was 28%; in the data set with NCI-H226 NSCLC xenograft (Day 25) it was 18%. In addition, the tumor inhibition rate with NCI-H226 NSCLC xenograft (tumor burden 21 days after treatment, vs control group, PEG-K1-3 4.5 mg/kg, Taxol 20 mg/kg) came to 84.43%. Moreover, the “average body weight compared with the control group” value in data set [1] is “significantly lower”.

Values taken from US20140056966A1, “CONJUGATE ANGIOSTATION OR ITS FRAGMENT, THE METHOD OF PRODUCING THE CONJUGATE AND USE THEREOF” (PROTGEN LTD., priority 2007, published 2014).
